Data taken from patent US9187411B2, “Leukotriene B4 antagonist compound” (Eli Lilly and Company, priority 2012, dated 2015).

Target: T1, PPARδ (Homo sapiens, UniProt Q03181)
T1 construct: made in house; host or cells: Sf9 insect cells (baculovirus), crude cell lysate
T1 sequence (Q03181 1-441): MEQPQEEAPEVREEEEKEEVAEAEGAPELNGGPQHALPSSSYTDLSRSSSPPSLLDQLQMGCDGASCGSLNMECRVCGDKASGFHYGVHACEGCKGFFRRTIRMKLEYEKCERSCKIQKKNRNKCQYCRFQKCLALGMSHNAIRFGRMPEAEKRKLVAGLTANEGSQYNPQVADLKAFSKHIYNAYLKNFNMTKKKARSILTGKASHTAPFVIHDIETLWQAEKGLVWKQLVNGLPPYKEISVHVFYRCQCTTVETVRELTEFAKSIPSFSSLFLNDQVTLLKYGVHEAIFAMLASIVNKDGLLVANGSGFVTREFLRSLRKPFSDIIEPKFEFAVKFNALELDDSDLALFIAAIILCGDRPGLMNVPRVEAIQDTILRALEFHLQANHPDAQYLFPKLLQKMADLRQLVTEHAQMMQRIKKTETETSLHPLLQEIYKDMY
T1 sequence (P19793 1-462 partner): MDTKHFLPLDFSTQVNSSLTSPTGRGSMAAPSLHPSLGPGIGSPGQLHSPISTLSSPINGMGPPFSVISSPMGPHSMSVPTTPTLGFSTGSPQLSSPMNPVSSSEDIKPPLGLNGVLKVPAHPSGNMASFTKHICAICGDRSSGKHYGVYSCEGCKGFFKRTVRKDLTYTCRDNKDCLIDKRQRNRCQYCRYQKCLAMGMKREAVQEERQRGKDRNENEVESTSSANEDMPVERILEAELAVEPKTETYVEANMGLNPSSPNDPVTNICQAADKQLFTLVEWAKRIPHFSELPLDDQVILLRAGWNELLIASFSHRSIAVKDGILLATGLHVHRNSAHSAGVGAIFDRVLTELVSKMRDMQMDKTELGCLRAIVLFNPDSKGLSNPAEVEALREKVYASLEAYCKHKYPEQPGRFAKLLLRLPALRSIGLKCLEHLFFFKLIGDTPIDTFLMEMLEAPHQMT
Assay: PPAR delta binding assay (SPA)
Details: tritiated GW2331, n=4, read-out: Ki PPAR δ binding
Text: The nucleotide sequences encoding full-length PPARα receptor DNA (National Center for Biotechnology Information (NCBI) Reference Sequence NM_005036.4), PPARδ receptor DNA (NCBI Reference Sequence NM_006238.4), PPARγ receptor DNA (NCBI Reference Sequence NM_015869.4) and Retinoid X Receptor (RXR) α DNA (NCBI Reference Sequence NM_002957.4) are synthesized and inserted into pFastBacHTb (Invitrogen) vector in-framed with the N-terminal HIS tag from the vector. […] The protein concentration is determined by Bradford assay using BSA as the standard.
Binding Affinities of Compounds for the PPAR α, δ, γ Receptors are Assessed Using Scintillation Proximity Assay (SPA) Technology.
Biotinylated oligonucleotide(DR2) ^5′[…]^3′ (SEQ ID NO: 1) is used for binding of receptors to Yttrium silicate streptavidin-coated SPA beads (Perkin Elmer). The PPAR α, δ, γ and Retinoid X Receptor (RXR) α receptors (endogenously expressed as heterodimers) are cell lysates from Baculovirus expression systems in Sf9 cells. […] Non-specific binding is determined in the presence of 10000 nM unlabeled GW2331 (Kliewer, S. A. et al Proc. Natl. Acad. Sci. USA (1997), 94: 4318-4323) for the alpha and delta receptors and 2-methyl-2-[4-[3-[propyl[(5-pyridin-2-ylthiophen-2-yl)sulfonyl]amino]-propyl]phenoxy]propanoic (WO 2004/073606) for the gamma receptor. […]

Question: For `CCCc1c(NC(=O)CC(C)(C)C(=O)[O-])cccc1OCCCOc1cc(O)c(-c2ccc(F)cc2)cc1CC.[Na+]` [Example 2, Sodium 4-[[3-[3-[2-ethyl-4-(4-fluorophenyl)-5-hydroxy-phenoxy]propoxy]-2-propyl-phenyl]amino]-2,2-dimethyl-4-oxo-butanoate], which Ki is on record?
Answer: > 8.83 µM
